The target of test [1] is Proto-oncogene tyrosine-protein kinase Src (Homo sapiens, UniProt P12931). Description: Inhibition of c-Src (unknown origin).
The test system of a further test is MDA-MB-231. Put plainly: Antiproliferative activity against human MDA-MB-231 cells.
Test [2] addresses T1, Wee1-like protein kinase (Homo sapiens, UniProt P30291). Description: Inhibition of recombinant Wee1 (unknown origin) by TR-FRET assay. (In general: Time-resolved FRET reads energy transfer from a long-lived donor to a nearby acceptor.)
For test [3], the target named is T2, Serine/threonine-protein kinase Chk1 (Homo sapiens, UniProt O14757).
T2 sequence (O14757 whole entry): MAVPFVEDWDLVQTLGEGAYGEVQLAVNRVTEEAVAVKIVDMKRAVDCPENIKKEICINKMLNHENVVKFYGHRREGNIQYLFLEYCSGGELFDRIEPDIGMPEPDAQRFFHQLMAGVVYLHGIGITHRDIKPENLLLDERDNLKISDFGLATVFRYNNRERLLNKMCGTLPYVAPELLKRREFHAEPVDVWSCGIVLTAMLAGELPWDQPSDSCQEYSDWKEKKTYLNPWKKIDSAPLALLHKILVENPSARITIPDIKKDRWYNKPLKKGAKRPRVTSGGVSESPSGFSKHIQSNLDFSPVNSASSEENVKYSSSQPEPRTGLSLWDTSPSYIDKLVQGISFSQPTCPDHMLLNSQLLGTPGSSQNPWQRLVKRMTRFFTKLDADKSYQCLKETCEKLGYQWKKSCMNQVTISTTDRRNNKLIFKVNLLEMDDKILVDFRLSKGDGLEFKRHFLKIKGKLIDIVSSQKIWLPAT
Put plainly: Inhibition of CHK1 (unknown origin).

Test [4] deals with T1, Wee1-like protein kinase. Description: Inhibition of recombinant Wee1 (unknown origin) incubated for 1 hr by TR-FRET assay.
Test [5] addresses T1, Wee1-like protein kinase. Put plainly: Inhibition of human full length N-terminal GST tagged Wee1 expressed in E coli.
In a further test the test system is A549. Put plainly: Antiproliferative activity against human A549 cells by MTS based Cell Titer 96 viability assay. Type of test: functional.
Test [6] deals with T1, Wee1-like protein kinase. Description: Binding affinity to Wee1 (unknown origin) assessed as dissociation constant.

Broadly, the IC50 is the concentration that gives 50% inhibition. In general, Kd refers to the constant that tells how readily two partners part at equilibrium.

Sequence of Proto-oncogene tyrosine-protein kinase Src (P12931 2-536 limits assumed): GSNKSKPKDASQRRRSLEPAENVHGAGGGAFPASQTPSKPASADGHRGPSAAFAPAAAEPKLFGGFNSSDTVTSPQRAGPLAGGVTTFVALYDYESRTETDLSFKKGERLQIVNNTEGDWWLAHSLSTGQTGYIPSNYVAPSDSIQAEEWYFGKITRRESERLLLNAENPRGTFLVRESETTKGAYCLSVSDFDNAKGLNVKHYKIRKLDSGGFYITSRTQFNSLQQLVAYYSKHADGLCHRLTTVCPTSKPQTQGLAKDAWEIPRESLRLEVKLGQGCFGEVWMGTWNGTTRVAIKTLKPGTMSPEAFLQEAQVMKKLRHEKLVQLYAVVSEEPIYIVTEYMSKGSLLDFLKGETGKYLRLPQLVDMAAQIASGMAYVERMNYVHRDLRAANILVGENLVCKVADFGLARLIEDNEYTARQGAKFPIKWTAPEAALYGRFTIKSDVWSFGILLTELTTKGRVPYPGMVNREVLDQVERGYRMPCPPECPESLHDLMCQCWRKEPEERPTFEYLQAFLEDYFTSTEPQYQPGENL
T1 sequence (P30291 whole entry): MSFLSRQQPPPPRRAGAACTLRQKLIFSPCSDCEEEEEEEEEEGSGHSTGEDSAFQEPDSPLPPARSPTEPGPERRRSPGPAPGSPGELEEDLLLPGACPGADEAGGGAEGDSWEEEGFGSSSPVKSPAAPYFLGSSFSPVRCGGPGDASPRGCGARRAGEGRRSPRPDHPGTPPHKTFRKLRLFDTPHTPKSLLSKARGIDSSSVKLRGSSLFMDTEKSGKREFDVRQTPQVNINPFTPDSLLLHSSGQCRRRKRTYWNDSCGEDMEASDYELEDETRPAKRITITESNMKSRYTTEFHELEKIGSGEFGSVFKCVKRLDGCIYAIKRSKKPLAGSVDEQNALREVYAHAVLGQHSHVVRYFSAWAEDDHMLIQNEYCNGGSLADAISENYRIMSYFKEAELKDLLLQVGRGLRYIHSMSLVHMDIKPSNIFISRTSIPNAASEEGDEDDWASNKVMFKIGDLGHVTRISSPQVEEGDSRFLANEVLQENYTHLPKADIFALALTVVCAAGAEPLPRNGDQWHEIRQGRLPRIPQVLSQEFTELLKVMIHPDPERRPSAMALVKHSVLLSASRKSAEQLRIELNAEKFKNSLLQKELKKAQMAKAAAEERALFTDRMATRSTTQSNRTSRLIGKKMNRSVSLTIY

For the compound `Cn1c(=O)c(-c2c(Cl)cccc2Cl)cc2cnc(Nc3ccc(OCCCC(=O)O)cc3)nc21`, it took 4 nM to reach half-maximal inhibition in test [1] (IC50). For the compound `COc1cc(Nc2c(C#N)cnc3cc(OCCCN4CCN(C)CC4)c(OC)cc23)c(Cl)cc1Cl` [BOSUTINIB], in the test with MDA-MB-231, it took 1800 nM to reach half-maximal inhibition (IC50). Compound `CCN(CC)CCOc1ccc(Nc2ncc3cc(-c4c(C)cccc4C)c(=O)n(C)c3n2)cc1` had an IC50 in test [1] of 23 nM. As for `C=CCn1c(=O)c2cnc(Nc3ccc(CCN(C)C)cc3)nc2n1-c1cccc(C(C)(C)O)n1`, the IC50 at Wee1-like protein kinase [2] turned out to be 1.7 nM. `CCN(CC)CCOc1ccc(Nc2ncc3cc(-c4c(Cl)cccc4Cl)c(=O)n(C)c3n2)cc1` [PD-0166285] showed an IC50 in test [3] of 72 nM. For the compound `C=CCn1c(=O)c2cnc(Nc3ccc(N4CCN(C(=O)OC)CC4)cc3)nc2n1-c1cccc(C(C)(C)O)n1`, on Wee1-like protein kinase [4], the IC50 was determined as 27.8 nM. In the case of `CCOC(=O)N1CCc2c(sc3nc(SCC(=O)c4ccccc4)n(N)c(=O)c23)C1`, the IC50 is 22300 nM at Wee1-like protein kinase [5] and 17800 nM in the test with A549. In test [1], `Cn1c(=O)c(-c2c(Cl)cccc2Cl)cc2cnc(Nc3ccc(CC(N)=O)cc3)nc21` displayed an IC50 of 13 nM. As to `Cc1cccc(C)c1-c1cc2cnc(Nc3ccccc3)nc2n(C)c1=O`, the IC50 in test [1] worked out at 14 nM. In test [1], `Cn1c(=O)c(-c2c(Cl)ccc(O)c2Cl)cc2cnc(Nc3ccc(OCCCC(=O)O)cc3)nc21` yielded an IC50 of 99 nM. Still for that read-out and setting: then `CCN(CC)CCOc1ccc(Nc2ncc3c(C)c(-c4c(C)cccc4C)c(=O)n(C)c3n2)cc1`, with 360 nM. For `CC(=O)NCC(=O)N1[C@@H]2CC[C@H]1c1cc(Nc3ncc(C(F)(F)F)c(NC4CCC4)n3)ccc12`, the Kd on Wee1-like protein kinase [6] worked out at 78.7 nM. In test [1], `CCN(CC)CCOc1ccc(Nc2ncc3c(C)c(-c4ccccc4Cl)c(=O)n(C)c3n2)cc1` returned an IC50 of over 50000 nM.

The values are drawn from ChEMBL document CHEMBL5230094, “Structure-activity relationships of Wee1 inhibitors: A review” (Eur J Med Chem, 2020).
